Assay results as given in US20090010993A1, “Composition comprising polyphenol” (Conopco, Inc. d/b/a Unilever, priority 2007, published 2009).

Tested on: 2nd order mesenteric resistance arteries of SHR
Assay: Reactivity of isolated arteries: dilator effect during contraction induced by 40 mmol/L K+
Design: species or system Spontaneously Hypertensive Rats (SHR)
Description: Segments of 2nd order mesenteric artery side branches were isolated from 14 weeks old male Spontaneously Hypertensive Rats (SHR). Two stainless-steel wires (diameter 40 μm) were inserted in the lumen of the arterial segments, which were then mounted in organ chambers between an isometric force transducer and a displacement device (Danish Myotechnology by J. P. Trading, Denmark). The organ chambers were filled with Krebs-Ringer bicarbonate solution which was maintained at 37° C. and continuously aerated with 95% O2 and 5% CO2. Before the actual experiments started, arterial segments were stretched to their individual optimal lumen diameter for mechanical performance, i.e. the diameter at which maximal contractile responses to noradrenaline (10 μmol/L) were obtained. In each experiment four second order mesenteric resistance arterial segments from one animal were mounted in individual organ chambers and studied in parallel. At the start of the experiments, all four arterial preparations were incubated during 20 min with capsaicin (1 μmol/L) to persistently desensitize sensory-motor nerves and to obtain a stable and considerable contractile response to potassium (K^+, 40 mmol/L). During all the experiments superoxide dismutase (SOD, 5 U/ml) was present, to preserve stability of the metabolites. We tested the effects of the 35 different phenolic compounds using a Plackett-Burman screening design. The experiment consisted of 5 separate saturated 8 run Plackett-burman designs. […] In this way, the effects of different exposure times to the mixtures (7, 30 and 90 min) on K+-induced contraction, could be evaluated. […] Effects of increasing concentrations of the solvent and of the mixes (0.1 to 100 umol/L) during contractile responses to 40 mmol/L K+, were calculated as % change of the level of pre-contraction. […] Responses to acetylcholine and Na-nitroprusside were analysed in terms of sensitivity (pD2=−log (M) EC50) and maximal effect (Emax) by least square sigmoidal curve fitting of individual concentration-response curves (Graphpad Prism 1.00, San Diego, Calif., USA). […]

O=c1c(O)c(-c2ccc(O)cc2)oc2cc(O)cc(O)c12 [kaempferol, 3,5,7-trihydroxy-2-(4-hydroxyphenyl)-4H-1-benzopyran-4-one]
EC50 (Rattus norvegicus, isolated mesenteric resistance arteries of SHR, pre-contracted with 40 mmol/L K+, deduced by comparing mixtures (Plackett-Burman design), corrected for solvent, read-out: EC50 of dilation of the arteries): 3 µM | influence on the dilation of the arteries (at a low concentration, isolated SHR mesenteric arteries, comparison of different mixtures): significant influence on the dilation of the arteries | concentration at which the maximum dilatation was obtained (isolated mesenteric resistance arteries of SHR, pre-contracted with 40 mmol/L K+, range tested 0.1-100 umol/L): 100 µM
